Experimental findings from ChEMBL document CHEMBL3045190, “Atomic and molecular parameters-based comparative QSAR study on tetrahydroimidazodiazepinone derivatives” (Med Chem Res, 2012) are described below.

Structures are written as SMILES.

The experiment has as its target Human immunodeficiency virus type 1 reverse transcriptase (Human immunodeficiency virus 1, UniProt Q72547). Briefly: Binding affinity to Human immunodeficiency virus 1 reverse transcriptase.
What is called pEC50 is the EC50 on a negative log10 scale, so that one unit is a factor of ten. Consider `CC(C)=CCN1Cc2cc(C)cc3[nH]c(=S)n(c23)CC1C` (centres undefined), for which the negative logarithm of the EC50 (pEC50) was 6.1.

`CC(C)=CCN1Cc2cccc3nc(O)n(c23)CC1C` (centres undefined) had a pEC50 of 5.38.

For the molecule `C=C(C)CN1Cc2cccc3[nH]c(=O)n(c23)CC1C` (centres undefined), the pEC50 came out at 4.85.

`CC1Cn2c(S)nc3cc(Cl)cc(c32)CN1CC1CCC1` (centres undefined): the pEC50 came out at 7.37.

Take `CCC(=CCN1Cc2cc(C)cc3nc(O)n(c23)C[C@@H]1C)CC`: the pEC50 worked out at 6.51.

`CC(C)=CCN1Cc2cc(Cl)cc3nc(S)n(c23)CC1C` (centres undefined) [TIBO] registered a pEC50 of 7.04.

Consider `C=CCN1Cc2cccc3[nH]c(=O)n(c23)CC1C` (centres undefined), for which the pEC50 came out at 4.23.

In the case of `CCC(=CCN1Cc2c(Cl)ccc3[nH]c(=S)n(c23)CC1C)CC` (centres undefined), the pEC50 came to 8.29.

`CC1Cn2c(S)nc3cc(Cl)cc(c32)CN1CCC1CC1` (centres undefined) gave a negative-log EC50 (pEC50) of 5.66.

`C=C(C)CN1Cc2cc(Cl)cc3[nH]c(=O)n(c23)CC1C` (centres undefined): the pEC50 worked out at 5.33.

For the molecule `CC(C)=CCN1Cc2c(Cl)ccc3[nH]c(=S)n(c23)C[C@@H]1C` [TIVIRAPINE], the pEC50 was 8.34.

Regarding `CC(C)=CCN1Cc2c(Br)ccc3nc(S)n(c23)C[C@@H]1C`, the pEC50 worked out at 8.52.

As for `CC(C)=CCN1Cc2cccc3[nH]c(=S)n(c23)CC1C` (centres undefined), the pEC50 is 7.36.

For the molecule `CC(C)=CCN1Cc2c(C)ccc3nc(S)n(c23)C[C@@H]1C`, the pEC50 worked out at 7.85.

In the case of `CCC(=CCN1Cc2cc(Cl)cc3nc(S)n(c23)CC1C)CC` (centres undefined), the pEC50 is 7.82.

Turning to `CC(C)=CCN1Cc2cc(Cl)cc3nc(O)n(c23)CC1C` (centres undefined), the pEC50 came out at 7.6.

In the case of `CC(C)=CCN1Cc2cc(Cl)c(Cl)c3nc(S)n(c23)C[C@@H]1C`, the pEC50 stood at 7.6.

The molecule `C=C(C)CN1Cc2cc(Cl)cc3[nH]c(=S)n(c23)CC1C` (centres undefined) yielded a pEC50 of 6.35.

Turning to `CCCN1Cc2cccc3[nH]c(=S)n(c23)CC1C` (centres undefined), the pEC50 was determined as 6.62.
